Measured values as given in article PMC3254257 (Bioconjugate Chemistry, 2011).

How the values were obtained:
Aqueous solubility = assay type: physicochemical; conditions: water
Stability in serum = assay type: in vitro ADME, bovine; conditions: 37°C; for relative serum stability: 100% FBS, 10 h
[1] = Tetrazine cycloaddition kinetics with norbornene; assay type: physicochemical; conditions: PBS pH 7.4, 37°C, 5% DMSO, excess NB
[2] = Tetrazine cycloaddition kinetics with TCO; assay type: physicochemical; conditions: among tetrazines of this study

| aqueous solubility (Aqueous solubility) | relative serum stability (Stability in serum) | time to formation of a precipitate in FBS (Stability in serum; FBS, serum stability could not be measured) | Compound | cycloaddition kinetics with NB compared to hydrogen substituted tetrazine 1 [1] | relative cycloaddition kinetics with TCO [2] |
| --- | --- | --- | --- | --- | --- |
| not soluble to any measurable amount |  |  | c1ccc(-c2nnc(-c3ccccc3)nn2)cc1 [3,6-diphenyl tetrazine, reference compound] |  |  |
|  | least stable |  | Cl.NCc1ccc(-c2nnc(-c3ncccn3)nn2)cc1 [Tetrazine 4, (4-(6-(Pyrimidin-2-yl)-1,2,4,5-tetrazin-3-yl)phenyl)methanamine hydrochloride] | faster kinetics |  |
| extremely water soluble | best serum stability |  | Cc1nnc(CCCCCN)nn1.Cl [Tetrazine 6, 5-(6-Methyl-1,2,4,5-tetrazin-3-yl)pentan-1-amine hydrochloride] | slower cycloaddition reactions | slowest reaction kinetics |
|  |  | 1.5 to 2 h | Cl.NCc1ccc(-c2nnc(-c3ccccn3)nn2)cc1 [Tetrazine 3, (4-(6-(Pyridin-2-yl)-1,2,4,5-tetrazin-3-yl)phenyl)methanamine hydrochloride] |  |  |
